The text below walks through data of the supplement of paper PMC8976852.

SMILES strings stand for the structures. ± gives the standard deviation of the averaged measurements.

Holding throughout (experiment): activity (1 - area under the dose-response curve within the screened range) (fraction); higher = more sensitive
Common to all, as to conditions: treatment time: 72 h

In one assay the test system is HCM-SANG-0532-C20 (colorectal cancer organoid). How it is done:
(§1)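 Patient-derived cancer organoids (colorectal and oesophageal, HCM-SANG models) were grown for up to 6 months in 5% or 80% ECM (BME-2), then seeded in 384-well plates on an ECM layer and treated with 72 compounds for 3 days. Each compound used a 7-point half-log dilution series spanning a 1000-fold range, in technical triplicate and biological duplicate. Dose-response curves were fitted with a non-linear mixed effects model; fits with RMSE > 0.3 were removed, and activity = 1 - AUC within the screened dose range (0 = no activity, 1 = maximum).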

A further assay concerns HCM-SANG-0270-C20 (colorectal cancer organoid). Here is the method:
as §1

A further assay relates to HCM-SANG-0266-C20 (colorectal cancer organoid). How it is done:
as §1

For another assay, the system named is HCM-SANG-0291-C15 (oesophageal cancer organoid). Here is the method: as §1
The mark [1] stands for this setting: ECM percentage in culture prior to screening 5 %.
The mark [2] stands for this setting: ECM percentage in culture prior to screening 80 %.

Consider `C[C@]1(O)C[C@@H](c2nc(-c3ccc4ccc(-c5ccccc5)nc4c3)c3c(N)nccn32)C1` [Linsitinib], for which the activity worked out at 0.033 ± 0.015 with HCM-SANG-0532-C20 (setting [1]); 0.0378 ± 0.015 with HCM-SANG-0532-C20 (setting [2]); 0.0341 ± 0.014 in the assay on HCM-SANG-0270-C20 (setting [1]); 0.0245 ± 0.0092 with HCM-SANG-0270-C20 (setting [2]); 0.0577 ± 0.033 in the assay with HCM-SANG-0266-C20 (setting [1]); 0.0295 ± 0.017 in the assay with HCM-SANG-0266-C20 (setting [2]). Also, the activity came out at 0.0216 ± 0.0028 in the assay with HCM-SANG-0291-C15 (setting [1]) and 0.0248 ± 0.013 in the assay on HCM-SANG-0291-C15 (setting [2]).
For the compound `CCN(CC)CCCCNc1ncc2cc(-c3cc(OC)cc(OC)c3)c(NC(=O)NC(C)(C)C)nc2n1`, the activity was 0.0936 ± 0.015 in the assay with HCM-SANG-0532-C20 (setting [1]); 0.0708 ± 0.015 with HCM-SANG-0532-C20 (setting [2]); 0.0417 ± 0.029 with HCM-SANG-0270-C20 (setting [1]); 0.0362 ± 0.015 in the assay with HCM-SANG-0270-C20 (setting [2]); 0.0628 ± 0.031 in the assay on HCM-SANG-0266-C20 (setting [1]); 0.0486 ± 0.023 with HCM-SANG-0266-C20 (setting [2]). The figures for the activity with HCM-SANG-0291-C15 (setting [1]) and in the assay on HCM-SANG-0291-C15 (setting [2]) were 0.0598 ± 0.031 and 0.0496 ± 0.0089, respectively.
With `CC/C(=C(\c1ccccc1)c1ccc(OCCN(C)C)cc1)c1ccccc1` [Tamoxifen], the activity with HCM-SANG-0532-C20 (setting [1]) worked out at 0.0364 ± 0.025; with HCM-SANG-0532-C20 (setting [2]), 0.0524 ± 0.021; with HCM-SANG-0270-C20 (setting [1]), 0.0375 ± 0.013; in the assay on HCM-SANG-0270-C20 (setting [2]) it was 0.0425 ± 0.025; with HCM-SANG-0266-C20 (setting [1]) it was 0.0883 ± 0.053; in the assay with HCM-SANG-0266-C20 (setting [2]) it was 0.0314 ± 0.011. Also, the results for the activity in the assay with HCM-SANG-0291-C15 (setting [1]) and in the assay with HCM-SANG-0291-C15 (setting [2]) were 0.0279 ± 0.013 and 0.0235 ± 0.0053, respectively.
On to `COCC1(CO)C(=O)C2CCN1CC2` (stereo not drawn) [PRIMA-1MET], for which the activity in the assay with HCM-SANG-0532-C20 (setting [1]) came to 0.074 ± 0.023; in the assay with HCM-SANG-0532-C20 (setting [2]), 0.0388 ± 0.016; with HCM-SANG-0270-C20 (setting [1]), 0.0251 ± 0.01; with HCM-SANG-0270-C20 (setting [2]), 0.0283 ± 0.0083; in the assay with HCM-SANG-0266-C20 (setting [1]), 0.0344 ± 0.016; with HCM-SANG-0266-C20 (setting [2]), 0.0318 ± 0.016. Further, the activity was 0.0344 ± 0.019 with HCM-SANG-0291-C15 (setting [1]) and 0.0328 ± 0.011 in the assay with HCM-SANG-0291-C15 (setting [2]).
`CN1CCN(CCOc2cc(OC3CCOCC3)c3c(Nc4c(Cl)ccc5c4OCO5)ncnc3c2)CC1` [Saracatinib]: the activity in the assay on HCM-SANG-0532-C20 (setting [1]) came out at 0.155 ± 0.067; with HCM-SANG-0532-C20 (setting [2]), 0.141 ± 0.028; in the assay on HCM-SANG-0270-C20 (setting [1]) it was 0.121 ± 0.071; in the assay on HCM-SANG-0270-C20 (setting [2]), 0.0918 ± 0.067; in the assay with HCM-SANG-0266-C20 (setting [1]) it was 0.156 ± 0.038; in the assay with HCM-SANG-0266-C20 (setting [2]), 0.126 ± 0.041. In addition, the activity with HCM-SANG-0291-C15 (setting [1]) came to 0.159 ± 0.035; with HCM-SANG-0291-C15 (setting [2]), 0.185 ± 0.024.
On to `Cc1cc(Nc2cc(N3CCN(C)CC3)nc(Sc3ccc(NC(=O)C4CC4)cc3)n2)n[nH]1` [Tozasertib], for which the activity with HCM-SANG-0532-C20 (setting [1]) came out at 0.16 ± 0.076; in the assay with HCM-SANG-0532-C20 (setting [2]), 0.123 ± 0.046; with HCM-SANG-0270-C20 (setting [1]), 0.0983 ± 0.062; with HCM-SANG-0270-C20 (setting [2]), 0.0668 ± 0.034; in the assay on HCM-SANG-0266-C20 (setting [1]), 0.222 ± 0.09; in the assay on HCM-SANG-0266-C20 (setting [2]) it was 0.228 ± 0.033. Also, the activity with HCM-SANG-0291-C15 (setting [1]) is 0.0578 ± 0.037; in the assay with HCM-SANG-0291-C15 (setting [2]), 0.0466 ± 0.014.
For `O=C(c1cc(Cc2n[nH]c(=O)c3ccccc23)ccc1F)N1CCN(C(=O)C2CC2)CC1` [Olaparib], the activity worked out at 0.0528 ± 0.018 with HCM-SANG-0532-C20 (setting [1]); 0.0726 ± 0.027 with HCM-SANG-0532-C20 (setting [2]); 0.0818 ± 0.017 in the assay on HCM-SANG-0270-C20 (setting [1]); 0.0664 ± 0.027 in the assay on HCM-SANG-0270-C20 (setting [2]); 0.0602 ± 0.028 in the assay on HCM-SANG-0266-C20 (setting [1]); 0.0424 ± 0.017 in the assay with HCM-SANG-0266-C20 (setting [2]). In addition, the values for the activity in the assay on HCM-SANG-0291-C15 (setting [1]) and in the assay with HCM-SANG-0291-C15 (setting [2]) were 0.0587 ± 0.015 and 0.0412 ± 0.017, respectively.
As for `Nc1nc2[nH]cc(CCc3ccc(C(=O)N[C@@H](CCC(=O)O)C(=O)O)cc3)c2c(=O)[nH]1` [Pemetrexed], the activity is 0.0604 ± 0.023 in the assay with HCM-SANG-0532-C20 (setting [1]); 0.0425 ± 0.012 in the assay on HCM-SANG-0532-C20 (setting [2]); 0.117 ± 0.049 with HCM-SANG-0270-C20 (setting [1]); 0.164 ± 0.1 in the assay on HCM-SANG-0270-C20 (setting [2]); 0.0697 ± 0.056 with HCM-SANG-0266-C20 (setting [1]); 0.0926 ± 0.047 in the assay on HCM-SANG-0266-C20 (setting [2]). The activity in the assay on HCM-SANG-0291-C15 (setting [1]) is 0.0737 ± 0.036; in the assay with HCM-SANG-0291-C15 (setting [2]), 0.0434 ± 0.025.
As for `CC[C@@]1(O)C(=O)OCc2c1cc1n(c2=O)Cc2cc3ccccc3nc2-1` [Camptothecin], the activity was found to be 0.106 ± 0.034 in the assay on HCM-SANG-0532-C20 (setting [1]); 0.156 ± 0.023 with HCM-SANG-0532-C20 (setting [2]); 0.133 ± 0.028 in the assay with HCM-SANG-0270-C20 (setting [1]); 0.0946 ± 0.022 in the assay with HCM-SANG-0270-C20 (setting [2]); 0.169 ± 0.031 in the assay on HCM-SANG-0266-C20 (setting [1]); 0.147 ± 0.071 in the assay on HCM-SANG-0266-C20 (setting [2]). Moreover, the activity turned out to be 0.262 ± 0.021 with HCM-SANG-0291-C15 (setting [1]) and 0.258 ± 0.022 in the assay on HCM-SANG-0291-C15 (setting [2]).
Regarding `CC(=O)Nc1cccc(-n2c(=O)n(C3CC3)c(=O)c3c(Nc4ccc(I)cc4F)n(C)c(=O)c(C)c32)c1` [Trametinib], the activity with HCM-SANG-0532-C20 (setting [1]) was determined as 0.114 ± 0.065; with HCM-SANG-0532-C20 (setting [2]), 0.146 ± 0.024; in the assay with HCM-SANG-0270-C20 (setting [1]), 0.0906 ± 0.051; in the assay with HCM-SANG-0270-C20 (setting [2]), 0.0586 ± 0.043; in the assay on HCM-SANG-0266-C20 (setting [1]), 0.207 ± 0.078; in the assay on HCM-SANG-0266-C20 (setting [2]), 0.0946 ± 0.067. The activity with HCM-SANG-0291-C15 (setting [1]) came out at 0.1 ± 0.019; with HCM-SANG-0291-C15 (setting [2]) it was 0.0654 ± 0.02.
In the case of `N.N.[Cl][Pt][Cl]` [Cisplatin], the activity in the assay on HCM-SANG-0532-C20 (setting [1]) amounted to 0.0676 ± 0.035; in the assay with HCM-SANG-0532-C20 (setting [2]) it was 0.0959 ± 0.02; in the assay with HCM-SANG-0270-C20 (setting [1]) it was 0.0701 ± 0.024; with HCM-SANG-0270-C20 (setting [2]), 0.0677 ± 0.021; with HCM-SANG-0266-C20 (setting [1]), 0.0675 ± 0.021; with HCM-SANG-0266-C20 (setting [2]), 0.08 ± 0.081. Moreover, the activity in the assay on HCM-SANG-0291-C15 (setting [1]) was found to be 0.132 ± 0.023; with HCM-SANG-0291-C15 (setting [2]), 0.151 ± 0.025.
